pIC50: −log10 of the molar value.
What was measured:
[1] = target: Jak2 (Jak2-WT) (Mus musculus, UniProt Q62120); test: autophosphorylation; format: cell-based
[2] = target: Jak2-V617F (Mus musculus, UniProt Q62120, V617F); test: autophosphorylation; format: cell-based
Sequence of Jak2-V617F (Q62120 whole entry V617F): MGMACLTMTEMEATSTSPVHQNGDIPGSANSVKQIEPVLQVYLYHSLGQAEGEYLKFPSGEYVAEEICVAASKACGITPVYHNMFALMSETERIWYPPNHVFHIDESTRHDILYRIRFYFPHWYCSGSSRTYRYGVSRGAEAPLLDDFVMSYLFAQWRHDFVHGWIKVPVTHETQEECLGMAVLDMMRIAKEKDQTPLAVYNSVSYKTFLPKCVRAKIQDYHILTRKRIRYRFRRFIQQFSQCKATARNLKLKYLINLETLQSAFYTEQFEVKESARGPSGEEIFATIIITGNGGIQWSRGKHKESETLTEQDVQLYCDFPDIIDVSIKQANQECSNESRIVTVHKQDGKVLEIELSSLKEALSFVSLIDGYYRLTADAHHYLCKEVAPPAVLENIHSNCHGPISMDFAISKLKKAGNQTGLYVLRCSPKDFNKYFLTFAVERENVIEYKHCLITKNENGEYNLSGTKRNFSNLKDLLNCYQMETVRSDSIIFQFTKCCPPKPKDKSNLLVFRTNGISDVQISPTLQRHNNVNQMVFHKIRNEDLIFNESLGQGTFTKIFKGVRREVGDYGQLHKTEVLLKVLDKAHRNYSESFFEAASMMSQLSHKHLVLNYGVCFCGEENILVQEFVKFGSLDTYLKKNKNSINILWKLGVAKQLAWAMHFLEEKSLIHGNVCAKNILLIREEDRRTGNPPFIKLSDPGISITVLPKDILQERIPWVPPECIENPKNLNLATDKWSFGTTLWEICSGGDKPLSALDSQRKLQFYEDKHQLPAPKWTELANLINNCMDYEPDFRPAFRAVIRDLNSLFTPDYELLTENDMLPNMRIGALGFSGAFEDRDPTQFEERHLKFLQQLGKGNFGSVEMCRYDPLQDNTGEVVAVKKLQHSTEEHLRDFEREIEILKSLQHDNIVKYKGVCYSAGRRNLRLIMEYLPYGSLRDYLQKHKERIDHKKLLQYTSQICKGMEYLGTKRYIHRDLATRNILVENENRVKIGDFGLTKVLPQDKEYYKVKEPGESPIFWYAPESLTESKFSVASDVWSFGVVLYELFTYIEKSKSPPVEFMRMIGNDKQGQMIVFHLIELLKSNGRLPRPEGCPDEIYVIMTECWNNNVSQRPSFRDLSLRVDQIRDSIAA

Sequence of Jak2 (Jak2-WT) (Q62120 whole entry): as the sequence (Q62120 whole entry V617F) above, with F617V counted along it

pIC50 [1]: ~4.82 | pIC50 [2]: ~4.55
Compound: CC(CCc1ccccn1)(CCc1ccccn1)C(=O)c1ccccc1 [Z3, 2-methyl-1-phenyl-4-pyridin-2-yl-2-(2-pyridin-2-ylethyl)butan-1-one]

From paper PMC2579271 (Molecular cancer therapeutics, 2008)
